Data: ChEMBL document CHEMBL1156712, “CNS depressant and anticonvulsant activities of some novel 3-[5-substituted 1,3,4-thiadiazole-2-yl]-2-styryl quinazoline-4(3H)-ones” (Eur J Med Chem, 2008)
Activity calls are given as the source filed them. No cut-off for these calls is given here.

Experiments:
[1] = system: Mus musculus; experiment: Anticonvulsant activity in mouse at 300 mg/kg, ip after 0.5 hrs by MES test; type: functional, organism-based; set-up: dose 300 mg/kg
[2] = system: Mus musculus; experiment: Anticonvulsant activity in mouse at 300 mg/kg, ip after 4 hrs by MES test; type: functional, organism-based; set-up: dose 300 mg/kg
[3] = system: Mus musculus; experiment: Anticonvulsant activity in ip dosed mouse after 0.5 hrs by scPTZ test; type: functional
[4] = system: Mus musculus; experiment: Anticonvulsant activity in ip dosed mouse after 4 hrs by scPTZ test; type: functional
[5] = system: Mus musculus; experiment: Neurotoxicity in ip dosed mouse assessed as minimal motor impairment after 0.5 hrs by rotarod test; type: toxicity, organism-based; conditions: in vivo
[6] = system: Mus musculus; experiment: Neurotoxicity in ip dosed mouse assessed as minimal motor impairment at 100 mg/kg, ip after 1 hr by rotarod test; type: toxicity, organism-based; set-up: dose 100 mg/kg, route intraperitoneal; conditions: in vivo
[7] = system: Mus musculus; experiment: Neurotoxicity in ip dosed mouse assessed as minimal motor impairment at 100 mg/kg, ip after 0.25 hrs by rotarod test; type: toxicity, organism-based; set-up: dose 100 mg/kg, route intraperitoneal; conditions: in vivo
[8] = system: Rattus norvegicus; experiment: Central nervous system depressant activity in Wistar rat assessed as immobility time at 100 mg/kg, po after 1 hr by forced swim pool test; type: functional
[9] = system: Mus musculus; experiment: Neurotoxicity in mouse assessed as minimal motor impairment at 300 mg/kg, ip after 4 hrs by rotarod test; type: toxicity, organism-based; set-up: dose 300 mg/kg, route intraperitoneal; conditions: in vivo
[10] = system: Mus musculus; experiment: Anticonvulsant activity in mouse at 300 mg/kg, ip after 0.5 hrs by scPTZ test; type: functional, organism-based; set-up: dose 300 mg/kg
[11] = system: Mus musculus; experiment: Anticonvulsant activity in mouse at 300 mg/kg, ip after 4 hrs by scPTZ test; type: functional, organism-based; set-up: dose 300 mg/kg
[12] = system: Mus musculus; experiment: Neurotoxicity in ip dosed mouse assessed as minimal motor impairment after 4 hrs by rotarod test; type: toxicity, organism-based; conditions: in vivo
[13] = system: Mus musculus; experiment: Anticonvulsant activity in ip dosed mouse after 0.5 hrs by MES test; type: functional
[14] = system: Mus musculus; experiment: Anticonvulsant activity in ip dosed mouse after 4 hrs by MES test; type: functional
[15] = system: Mus musculus; experiment: Neurotoxicity in ip dosed mouse assessed as loss of righting reflux after 0.5 hrs; type: toxicity, organism-based; conditions: in vivo
[16] = system: Mus musculus; experiment: Neurotoxicity in mouse assessed as minimal motor impairment at 300 mg/kg, ip after 0.5 hrs by rotarod test; type: toxicity, organism-based; set-up: dose 300 mg/kg, route intraperitoneal; conditions: in vivo

SMILES | Activity [1] | Activity [2] | Activity [3] [mg/kg] | Activity [4] [mg/kg] | Activity [5] [mg/kg] | Activity [6] [mg/kg] | Activity [7] [mg/kg] | Time [8] [s] | Activity [9] | Activity [10] | Activity [11] | Activity [12] [mg/kg] | Activity [13] [mg/kg] | Active dose [14] [mg/kg] | Activity [15] | Activity [16]
O=c1c2ccccc2nc(/C=C/c2ccc(Cl)cc2)n1-c1nnc(-c2cccc(Cl)c2)s1 | inactive | inactive | 300 | 300 | 300 | 100 | 100 | 127.48 | Non-toxic |  |  |  |  |  |  | 
COc1ccc(-c2nnc(-n3c(/C=C/c4ccc(Cl)cc4)nc4ccccc4c3=O)s2)cc1 | inactive | inactive |  |  | 300 |  |  | 177.08 |  | inactive | inactive | 300 |  |  |  | 
O=C1NC(=O)C(c2ccccc2)(c2ccccc2)N1 [PHENYTOIN] |  |  |  |  | 100 |  |  |  |  | inactive | inactive | 100 | 30 | 30 |  | 
Cc1ccc(-c2nnc(-n3c(/C=C/c4ccc(Cl)cc4)nc4ccccc4c3=O)s2)cc1 | inactive | inactive |  |  | 300 |  |  | 150.1 | Non-toxic | inactive | inactive |  |  |  |  | 
O=c1c2ccccc2nc(/C=C/c2cccc(Cl)c2)n1-c1nnc(-c2ccccc2)s1 | inactive | inactive |  |  | 300 |  |  | 132.69 | Non-toxic | inactive | inactive |  |  |  | Toxic | 
O=c1c2ccccc2nc(/C=C/c2ccncc2)n1-c1nnc(-c2ccc(Cl)cc2)s1 | inactive |  | 300 | 300 | 300 |  |  | 99.82 | Non-toxic |  |  |  |  | 100 |  | 
COc1ccc(-c2nnc(-n3c(/C=C/c4ccncc4)nc4ccccc4c3=O)s2)cc1 | inactive | inactive |  |  |  |  |  | 168.42 | Non-toxic | inactive | inactive |  |  |  |  | Non-toxic
O=c1c2ccccc2nc(/C=C/c2cccc(Cl)c2)n1-c1nnc(/C=C/c2ccccc2)s1 | inactive | inactive |  |  |  |  |  | 187.91 | Non-toxic | inactive | inactive |  |  |  |  | Non-toxic
O=c1c2ccccc2nc(/C=C/c2ccncc2)n1-c1nnc(-c2ccccc2)s1 | inactive | inactive |  |  |  |  |  | 83.23 | Non-toxic | inactive | inactive |  |  |  |  | Non-toxic
O=c1c2ccccc2nc(/C=C/c2cccc(Cl)c2)n1-c1nnc(-c2cccc(Cl)c2)s1 | inactive | inactive |  |  |  |  |  | 175.83 | Non-toxic | inactive | inactive |  |  |  |  | Non-toxic
O=c1c2ccccc2nc(/C=C/c2ccncc2)n1-c1nnc(-c2cccc(Cl)c2)s1 | inactive | inactive |  |  | 300 |  |  | 142.36 |  | inactive | inactive | 300 |  |  |  | 
